What follows are compounds tested against T1, Gag-Pol polyprotein [588-1027]/[588-1147] (Human immunodeficiency virus 1, UniProt P04585) (assay: HIV-1 RT Assay). Conditions: pH 7.8; 37 °C.
T1 construct: 588-1027; 588-1147
Work on `O=C1Nc2ccccc2S(=O)(=O)n2cccc21` [2-thia-3,9-diazatricyclo[8.4.0.0^{3,7}]tetradeca-1(10),4,6,11,13-pentaene-2,2,8-trione] yielded an IC50 of 4 µM. `O=C1Nc2ccccc2Sn2cccc21` [5H-Pyrrolo [1,2-b] [1,2,5] benzothiadiazepin-11 (10H) -one] gave an IC50 greater than 100 µM. `Cn1c2ccccc2n2c(c3cccn31)=C(O)N(CCN1CCOCC1)CC2=O` [7-methyl-17-[2-(morpholin-4-yl)ethyl]-6,7,14,17-tetraazatetracyclo[12.4.0.0^{2,6}.0^{8,13}]octadeca-2,4,8(13),9,11-pentaene-15,18-dione] showed an IC50 of 6.3 µM. `Cn1c2ccccc2n2c(c3cccn31)=C(O)N(CCN1CCCCC1)CC2=O` [7-methyl-17-[2-(piperidin-1-yl)ethyl]-6,7,14,17-tetraazatetracyclo[12.4.0.0^{2,6}.0^{8,13}]octadeca-2,4,8(13),9,11-pentaene-15,18-dione] was tested, and the IC50 was greater than 100 µM. With `C=CCN1C(=O)c2cccn2S(=O)(=O)c2ccccc21` [9-(prop-2-en-1-yl)-2-thia-3,9-diazatricyclo[8.4.0.0^{3,7}]tetradeca-1(10),4,6,11,13-pentaene-2,2,8-trione] the IC50 was 9.5 µM. For `CC(C)N1C(=O)c2cccn2S(=O)(=O)c2ccccc21` [9-(propan-2-yl)-2-thia-3,9-diazatricyclo[8.4.0.0^{3,7}]tetradeca-1(10),4,6,11,13-pentaene-2,2,8-trione], the IC50 was 6.3 µM. `C/C=C/CN1C(=O)c2cccn2S(=O)(=O)c2ccccc21` [9-[(2E)-but-2-en-1-yl]-2-thia-3,9-diazatricyclo[8.4.0.0^{3,7}]tetradeca-1(10),4,6,11,13-pentaene-2,2,8-trione] gave an IC50 of 21 µM. Compound `C/C=C\CN1C(=O)c2cccn2S(=O)(=O)c2cc(Cl)ccc21` [9-[(2Z)-but-2-en-1-yl]-13-chloro-2-thia-3,9-diazatricyclo[8.4.0.0^{3,7}]tetradeca-1(10),4,6,11,13-pentaene-2,2,8-trione] has an IC50 of 3.1 µM. With `CCN1C(=O)c2cccn2S(=O)(=O)c2ccccc21` [9-ethyl-2-thia-3,9-diazatricyclo[8.4.0.0^{3,7}]tetradeca-1(10),4,6,11,13-pentaene-2,2,8-trione] the IC50 was 10 µM. For `CCCN1C(=O)c2cccn2S(=O)(=O)c2ccccc21` [9-propyl-2-thia-3,9-diazatricyclo[8.4.0.0^{3,7}]tetradeca-1(10),4,6,11,13-pentaene-2,2,8-trione], the IC50 was 24 µM. With `CN1C(=O)c2cccn2S(=O)(=O)c2ccccc21` [10-methyi-5H-pyrrolo1,2-b] [1,2,5] benzothiadiazepin-11(10H)-one-5,5-dioxide] the IC50 was 11 µM. With `O=C1Nc2ccc(Cl)cc2S(=O)(=O)n2cccc21` [13-chloro-2-thia-3,9-diazatricyclo[8.4.0.0^{3,7}]tetradeca-1(10),4,6,11,13-pentaene-2,2,8-trione] the IC50 was 0.7 µM. Work on `C=CCN1C(=O)c2cccn2S(=O)(=O)c2cc(Cl)ccc21` [13-chloro-9-(prop-2-en-1-yl)-2-thia-3,9-diazatricyclo[8.4.0.0^{3,7}]tetradeca-1(10),4,6,11,13-pentaene-2,2,8-trione] yielded an IC50 of 2.9 µM. `CCN1C(=O)c2cccn2S(=O)(=O)c2cc(Cl)ccc21` [13-chloro-9-ethyl-2-thia-3,9-diazatricyclo[8.4.0.0^{3,7}]tetradeca-1(10),4,6,11,13-pentaene-2,2,8-trione] showed an IC50 of 2.7 µM. `CN1C(=O)c2cccn2S(=O)(=O)c2cc(Cl)ccc21` [13-chloro-9-methyl-2-thia-3,9-diazatricyclo[8.4.0.0^{3,7}]tetradeca-1(10),4,6,11,13-pentaene-2,2,8-trione] showed an IC50 of 0.5 µM. In the case of `CN(C)CCCN1CC(=O)n2c(c3cccn3n(C)c3ccccc32)=C1O` [17-[3-(dimethylamino)propyl]-7-methyl-6,7,14,17-tetraazatetracyclo[12.4.0.0^{2,6}.0^{8,13}]octadeca-2,4,8(13),9,11-pentaene-15,18-dione], the IC50 is reported as 24 µM. Work on `CCOC(=O)CN1C(=O)c2cccn2S(=O)(=O)c2ccccc21` [ethyl 2-(2,2,8-trioxo-2-thia-3,9-diazatricyclo[8.4.0.0^{3,7}]tetradeca-1(10),4,6,11,13-pentaen-9-yl)acetate] yielded an IC50 of 31 µM.

Reference: BindingDB's records for doi:10.1016/0968-0896(96)00075-2 (Sapienza University of Rome, 1996)
